# What was measured:
# Test in all cases: MIC serial dilution assay
# Format in all cases: cell-based
# Pseudomonas aeruginosa = Pseudomonas aeruginosa PA14; overnight, 37 °C; reference gentamicin 0.1 mg/mL; read-out: Minimum Inhibitory Concentration (MIC)
# Method: (§1) Compounds 1, 2, 4 and 5 were dissolved in MeOH (1 mg/mL) for the antimicrobial activity assay, while compound 3 was dissolved in MeOH: DMSO 9+1 (1 mg/mL). The solvents were also used as negative controls.
# (§2) Minimum inhibitory concentrations (MIC) were determined in a serial dilution assay, as described previously; a detailed protocol can be found in the Supporting Information. The compounds (1 mg/mL) were diluted to a range of 66.7 to 0.52 µg/mL and incubated with the test organisms overnight. Inhibition of growth was visually evaluated the next day: the MIC is defined as the lowest concentration of the test compound where no growth of the test organism was observed. Various test organisms of fungal and bacterial origin were tested to cover a broad range of microorganisms. This selection is also being used as a standard test panel in our attempts to discover new anti-infectives, as it represents a broad spectrum of pathogens of clinical interest, as well as sensitive indicator strains (bacteria: Bacillus subtilis, Staphylococcus aureus, Micrococcus luteus, Chromobacterium violaceum, Escherichia coli and Pseudomonas aeruginosa; mycobacteria: Mycolicibacterium smegmatis and fungi: Candida albicans, Schizosaccharomyces pombe, Mucor hiemalis, Pichia anomala and Rhodotorula glutinis).
# (§3) Protocol: Antimicrobial Activi ty Assay
# (§4) The assay was conducted as a minimum inhi bitory concentration (MIC) assay in 96-well ro und-bottom mi crotiter pl ate s usi ng the p ar ameter s su mm ari zed i n T a bl e S 1 and as already described i n [S1].
# (§5) Stocks of the test organi sms were generated by growing the organisms o ver ni ght i n 50 mL shaki ng fl asks fi ll ed wi th 25 mL of the growth medi um at 140 rpm (for media and temperatures see Table S1). If the organisms were well grown the ne xt day, which was checked by occurrence of an optical density (OD)>30 of the suspension (OD600 nm for bacteria, OD548 nm for fungi and M. smegma tis) , aliquots of these were stored i n 1.5 mL reaction tube s in a freezer at −80 °C for up to 12 mo nths . Upon use, aliquots were unth awed and the OD of the suspension measured and adjusted by diluting with the respective growth medi um. OD600 nm w as adj usted to 0.01 and OD548 nm to 0.1.
# (§6) Subse que ntly, 150 µL o f the adjusted suspensions were added to all wells of a 96-wel l microtiter pl ate (one test organi sm per plate). In row A, additional 130 µL of suspensions plus 20 µL of the test compounds (1 mg/mL) and the controls (one compound/column) were added. MeOH as well as MeOH:DMSO 9+1 were used as negative controls, while different positive controls (refer ences) were used for the test organisms (see Tabl e S1). Then, starti ng from row A, 150 µ L of the suspension were transferred to the next row, the contents thoroughly mixed, and 150 µ L transferred to the following row.
# (§7) The remaining 150 µ L after row H were discarded. […]
# (§8) compounds, ranging from 66.7 µg/mL i n row A to 0.52 µg/mL i n row H.
# (§9) The microtiter plates were then incubated overnight o n a microplate shaker at 800 rpm at 30 or 37 °C (see Table S1) and were visually evaluated the next day. The MIC is defined as the lowest concentration were no growth of the test organism was o bserved. A lower MIC thus corresponds to a higher antimicrobial activity of the test compound.
# (§10) Table S1: MIC assay ex per i men t parameters test organism strain No. growth incubation positive control (reference) […]
# Pseudomonas a erugi nosa PA14 MHB 1 37 gent amici n 0.1 mg/mL […]
# (§11) Rhodotorula glutinis DSM10134 MYC 3 30 nyst ati n 1.0 mg/mL
# (§12) 1 MHB: Müller-Hinton Broth (SN X927.1, Ca r l Roth GmbH, Karlsruhe, Germany) 2 7H9+ADC: Middlebrook 7H9 Broth Base + Middlebrook ADC Growth Supplement (SN M0678+M0553, Merck, Darmstadt, Germany)
# (§13) 3 MYC: 1 % w/v, bacto peptone, 1% w/v yeast extract, 2 % w /v glycerol, pH 6.3 [S1] Helaly, S.E.; Ashrafi, S.; Teponno, R.B.; Bernecker, S.; Dababat, A.A.; Maier, W.; Stadler, M.
# (§14) Nematicidal Cyclic Lipodepsipeptides and a Xanthocillin Derivative from a Phaeosphariaceous […]
# [1] = tested on: Mycolicibacterium smegmatis; settings: Mycolicibacterium smegmatis ATCC700084; overnight, 37 °C; reference kanamycin 0.1 mg/mL
# Method: as §1, §2, §3, §4, §5, §6, §7, §8, §9, §10, §11, §12, §13, §14
# Staphylococcus aureus = Staphylococcus aureus DSM346; overnight, 30 °C; reference oxytetracycline 0.1 mg/mL; read-out: Minimum Inhibitory Concentration (MIC)
# Method: as §1, §2, §3, §4, §5, §6, §7, §8, §9, §10
# Staphylococcus aureus DSM346 MHB 1 30 oxytetr acyclin 0.1 mg/mL […]
# as §11, §12, §13, §14
# Bacillus subtilis = Bacillus subtilis DSM10; overnight, 30 °C; reference oxytetracycline 1 mg/mL; read-out: Minimum Inhibitory Concentration (MIC)
# Method: as §1, §2, §3, §4, §5, §6, §7, §8, §9, §10
# Bacillus subtilis DSM10 MHB 1 30 oxytetr acyclin 1.0 mg/mL […]
# as §11, §12, §13, §14
# [2] = tested on: Chromobacterium violaceum; settings: Chromobacterium violaceum DSM30191; overnight, 30 °C; reference oxytetracycline 0.1 mg/mL; read-out: Minimum Inhibitory Concentration (MIC)
# Method: as §1, §2, §3, §4, §5, §6, §7, §8, §9, §10
# Chromobacterium DSM30191 MHB 1 30 oxytetr acyclin 0.1 mg/mL […]
# as §11, §12, §13, §14
# Micrococcus luteus = settings: Micrococcus luteus, DSM1790, Micrococcus luteus DSM1790; overnight, 30 °C; reference oxytetracycline 0.1 mg/mL; read-out: Minimum Inhibitory Concentration (MIC)
# Method: as §1, §2, §3, §4, §5, §6, §7, §8, §9, §10
# Micrococcus luteu s DSM1790 MHB 1 30 oxytetr acyclin 0.1 mg/mL […]
# as §11, §12, §13, §14
# Escherichia coli = Escherichia coli DSM1116; overnight, 37 °C; reference oxytetracycline 0.1 mg/mL; read-out: Minimum Inhibitory Concentration (MIC)
# Method: as §1, §2, §3, §4, §5, §6, §7, §8, §9, §10
# Escherichia coli DSM1116 MHB 1 37 oxytetr acyclin 0.1 mg/mL […]
# as §11, §12, §13, §14
smiles,measurement,setting,value
"CNC(C)C1CCC(N)C(OC2C(N)CC(N)C(OC3OCC(C)(O)C(NC)C3O)C2O)O1 (stereo not shown) [gentamicin, reference compound]",MIC,Pseudomonas aeruginosa,0.4 µg/mL
"NC[C@H]1O[C@H](O[C@H]2[C@H](O)[C@@H](O[C@H]3O[C@H](CO)[C@@H](O)[C@H](N)[C@H]3O)[C@H](N)C[C@@H]2N)[C@H](O)[C@@H](O)[C@@H]1O [kanamycin, reference compound]",Minimum Inhibitory Concentration (MIC),[1],3.3 ^4 µg/mL
"CN(C)[C@@H]1C(O)=C(C(N)=O)C(=O)[C@@]2(O)C(O)=C3C(=O)c4c(O)cccc4[C@@](C)(O)[C@H]3[C@H](O)[C@@H]12 [oxytetracycline, reference compound]",MIC,Staphylococcus aureus,0.4 µg/mL
same,MIC,Bacillus subtilis,8.3 µg/mL
same,MIC,[2],0.1 µg/mL
same,MIC,Micrococcus luteus,0.8 µg/mL
same,MIC,Escherichia coli,1.7 µg/mL

# — article PMC7277860, “Viridistratins A−C, Antimicrobial and Cytotoxic Benzo[j]fluoranthenes from Stromata of Annulohypoxylon viridistratum (Hypoxylaceae, Ascomycota)” (Biomolecules, 2020)
